For experiment [1], the system named is Isoniazide-resistant TB 242. The experiment in a line: microbe, parasite or virus in culture. The class given is cell-based. The settings on record: Mycobacterium tuberculosis.
The subject of experiment [2] is Rifampicin-resistant TB 261. In words: microbe, parasite or virus in culture. The settings on record: Mycobacterium tuberculosis. The class given is cell-based.

≈ marks a conversion by molar mass, not a printed value.

Consider `NNC(=O)c1ccncc1` [Isoniazide], for which the MIC turned out to be 0.5 mg/L (≈ 3.65 µM) in experiment [1] and 0.125 mg/L (≈ 0.911 µM) in experiment [2].

Take `CO[C@H]1/C=C/O[C@@]2(C)Oc3c(C)c(O)c4c(O)c(c(/C=N/N5CCN(C)CC5)c(O)c4c3C2=O)NC(=O)/C(C)=C\C=C\[C@H](C)[C@H](O)[C@@H](C)[C@@H](O)[C@@H](C)[C@H](OC(C)=O)[C@@H]1C` [Rifampicin]: the MIC in experiment [1] is at most 0.25 mg/L; in experiment [2] it was over 32 mg/L.

In the case of `COC(=O)COc1ccc(NC(=O)COc2ccc(C)cc2C)cc1` [I, methyl 2-(4-(2-(2,4-dimethylphenoxy)acetamido)phenoxy)acetate], the figures for the MIC in experiment [1] and in experiment [2] were 16 mg/L (≈ 46.6 µM) and 4 mg/L (≈ 11.6 µM), respectively.

Consider `O=C(COc1ccc([N+](=O)[O-])c(F)c1)Nc1ccccc1[N+](=O)[O-]` [Compound 3m, 2-(3-Fluoro-4-nitrophenoxy)-N-(2-nitrophenyl)acetamide], for which the values for the MIC in experiment [1] and in experiment [2] were 32 mg/L (≈ 95.5 µM) and 4 mg/L (≈ 11.9 µM), respectively.

For the origin of these results see publication PMC6268079, “Synthesis and Biological Evaluation of 2-(3-Fluoro-4-nitro phenoxy)-N-phenylacetamide Derivatives as Novel Potential Affordable Antitubercular Agents” (Molecules, 2012).
